Key:
Format in all cases: cell-based
[1] = molecular target: T1, human estrogen receptor ERα (Homo sapiens, UniProt P03372); assay: ERα MMTV-ERE-LUC reporter gene assay in HeLa cells
T1 construct: expressed in transfected cells; host or cells: HeLa
T1 sequence (P03372 1-595): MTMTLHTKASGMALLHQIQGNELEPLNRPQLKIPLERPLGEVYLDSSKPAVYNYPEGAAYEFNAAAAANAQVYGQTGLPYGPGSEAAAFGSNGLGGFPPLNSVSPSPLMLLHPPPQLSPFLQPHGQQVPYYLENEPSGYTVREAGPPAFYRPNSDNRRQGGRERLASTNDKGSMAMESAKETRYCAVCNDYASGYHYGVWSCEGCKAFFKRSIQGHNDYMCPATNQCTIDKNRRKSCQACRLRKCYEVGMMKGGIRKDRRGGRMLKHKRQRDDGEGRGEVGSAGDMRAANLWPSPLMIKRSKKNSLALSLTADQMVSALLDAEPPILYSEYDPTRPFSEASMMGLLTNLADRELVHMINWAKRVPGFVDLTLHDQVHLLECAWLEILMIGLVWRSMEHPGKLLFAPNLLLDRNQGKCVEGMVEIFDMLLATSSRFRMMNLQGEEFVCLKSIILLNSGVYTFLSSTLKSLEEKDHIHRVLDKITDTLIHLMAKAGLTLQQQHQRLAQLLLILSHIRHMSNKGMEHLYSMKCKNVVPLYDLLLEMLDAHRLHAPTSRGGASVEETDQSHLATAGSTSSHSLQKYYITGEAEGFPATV
Protocol: (§1) ERα and ERβ activity were assayed using plasmids encoding either ERα or ERβ co-transfected with the ERE-LUC reporter gene. To assay estrogen receptor agonist activity, HeLa cells were transiently co-transfected with two plasmids (Tcherepanova, et al., 2000) using Lipofectamine. The first plasmid comprised DNA encoding human estrogen receptor (either ERα or ERβ), and the second plasmid comprised an estrogen-driven reporter system comprising: a luciferase reporter gene (LUC) whose transcription is under the control of upstream regulatory elements comprising 4 copies of the vitellogenin estrogen response element (ERE) cloned into the Mouse Mammary Tumor Virus (MMTV) promoter (the full name of the reporter system being ‘MMTV-ERE-LUC’).
(§2) AR, PR, GR and ERα and […] were determined by comparing luciferase activity in test cells with control cells exposed to vehicle (i.e., ethanol or methanol) only, analogous to the determination of PPAR activity as described in the previous examples.

[2] = molecular target: T2, Progesterone Receptor (Homo sapiens, UniProt P06401); assay: PR (ARE)2-Luc luciferase reporter gene assay
T2 construct: expressed in transfected cells; host or cells: HeLa (named for the formononetin and daidzein experiments)
T2 sequence (P06401 1-933): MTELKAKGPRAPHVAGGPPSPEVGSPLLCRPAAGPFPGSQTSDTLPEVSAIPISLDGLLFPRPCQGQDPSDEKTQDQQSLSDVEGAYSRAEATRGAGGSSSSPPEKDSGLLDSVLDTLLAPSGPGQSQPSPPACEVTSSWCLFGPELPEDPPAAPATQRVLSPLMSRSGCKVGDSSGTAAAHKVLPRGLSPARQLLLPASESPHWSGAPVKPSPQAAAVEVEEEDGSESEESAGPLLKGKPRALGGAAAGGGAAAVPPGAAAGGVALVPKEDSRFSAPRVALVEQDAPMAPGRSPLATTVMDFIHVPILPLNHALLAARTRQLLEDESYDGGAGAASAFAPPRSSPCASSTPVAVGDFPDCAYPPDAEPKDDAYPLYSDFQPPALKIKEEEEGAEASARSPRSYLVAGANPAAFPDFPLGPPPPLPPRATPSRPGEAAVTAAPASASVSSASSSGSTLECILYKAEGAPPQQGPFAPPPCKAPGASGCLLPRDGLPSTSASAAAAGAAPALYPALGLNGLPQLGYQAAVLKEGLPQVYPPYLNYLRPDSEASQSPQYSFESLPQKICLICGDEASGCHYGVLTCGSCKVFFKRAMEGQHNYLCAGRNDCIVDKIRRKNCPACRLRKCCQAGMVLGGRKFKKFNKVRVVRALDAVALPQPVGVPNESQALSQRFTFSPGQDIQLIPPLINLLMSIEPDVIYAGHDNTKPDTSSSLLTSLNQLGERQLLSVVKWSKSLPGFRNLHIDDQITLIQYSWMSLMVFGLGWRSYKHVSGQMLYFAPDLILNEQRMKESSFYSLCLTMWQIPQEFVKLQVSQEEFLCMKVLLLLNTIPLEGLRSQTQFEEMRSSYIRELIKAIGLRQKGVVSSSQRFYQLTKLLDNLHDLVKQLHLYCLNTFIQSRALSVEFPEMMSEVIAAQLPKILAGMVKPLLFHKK
Protocol: The capacity of HQ extract to activate other steroid receptors, namely AR, PR, GR, ERα and ERβ was examined. […] The (ARE)2-Luc plasmid consist of two repeats of Androgen Response Element (ARE) cloned upstream of the Luciferase Reporter gene in a pGL3-Basic vector (Promega).
as §2

[3] = molecular target: T3, human estrogen receptor ERβ (Homo sapiens, UniProt Q92731); assay: ERβ MMTV-ERE-LUC reporter gene assay in HeLa cells; settings: for ERβ activity comparable to % maximal activity of Estradiol / maximal fold increase in ERβ activity: 30×10^−6 g/ml
T3 construct: expressed in transfected cells; host or cells: HeLa
Protocol: as §1, §2

T3 sequence (Q92731 whole entry): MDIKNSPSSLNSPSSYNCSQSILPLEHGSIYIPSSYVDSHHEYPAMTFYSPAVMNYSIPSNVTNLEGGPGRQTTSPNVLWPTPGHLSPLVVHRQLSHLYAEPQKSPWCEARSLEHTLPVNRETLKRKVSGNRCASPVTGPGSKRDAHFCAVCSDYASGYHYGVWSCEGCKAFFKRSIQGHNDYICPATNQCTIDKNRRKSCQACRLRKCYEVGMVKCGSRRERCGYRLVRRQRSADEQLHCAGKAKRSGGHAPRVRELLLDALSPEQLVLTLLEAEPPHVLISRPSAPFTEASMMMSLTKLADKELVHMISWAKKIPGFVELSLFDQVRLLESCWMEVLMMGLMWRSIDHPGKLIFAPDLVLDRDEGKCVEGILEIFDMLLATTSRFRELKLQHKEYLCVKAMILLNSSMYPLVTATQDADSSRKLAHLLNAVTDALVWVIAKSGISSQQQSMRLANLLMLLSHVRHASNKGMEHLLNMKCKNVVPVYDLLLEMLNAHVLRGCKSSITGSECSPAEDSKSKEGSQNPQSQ

SMILES: COc1ccc(-c2coc3cc(O)ccc3c2=O)cc1O [calycosin, 3′,7-Dihydroxy-4′-methoxyisoflavone]
- ERα activity comparable to % maximal activity of Estradiol ([1]; 30×10^−6 g/ml): ~50%
- maximal fold increase in ERα activity ([1]; 30×10^−6 g/ml): 20 fold
- Luciferase activity (Fold over vehicle ± SE) ERα/Estradiol (1 × 10^−9M) ([1]; calycosin 3 ×10^−6 g/mL): 118 ± 2.18 Fold
- Luciferase activity (Fold over vehicle ± SE) ERα/Estradiol (1 × 10^−9M) ([1]; calycosin 10 ×10^−6 g/mL): 127 ± 6.3 Fold
- Luciferase activity (Fold over vehicle ± SE) ERα/Estradiol (1 × 10^−9M) ([1]; calycosin 30 ×10^−6 g/mL): 114 ± 4.18 Fold
- increase of the activity of maximal doses of estradiol on ERα ([1]; with estradiol 1×10^−9M): 2.9 fold
- Luciferase activity (Fold over vehicle ± SE) PR/Progesterone (10 × 10^−6M) ([2]; calycosin 3 ×10^−6 g/mL): 1077 ± 43.4 Fold
- Luciferase activity (Fold over vehicle ± SE) PR/Progesterone (10 × 10^−6M) ([2]; calycosin 10 ×10^−6 g/mL): 943 ± 44.0 Fold
- Luciferase activity (Fold over vehicle ± SE) PR/Progesterone (10 × 10^−6M) ([2]; calycosin 30 ×10^−6 g/mL): 837 ± 115 Fold
- increase of the activity of maximal doses of PR agonist ([2]; with progesterone 10×10^−6M): 1.8 fold
- effect on ERβ activity of estradiol ([3]; 1 to 30×10^−6 g/mL + estradiol 1×10^−9M): additive
- ERβ activity comparable to % maximal activity of Estradiol [3]: ~400%
- maximal fold increase in ERβ activity [3]: 100 fold
- Luciferase activity (Fold over vehicle ± SE) ERβ/Estradiol (1 × 10^−9M) ([3]; calycosin 3 ×10^−6 g/mL): 55.2 ± 1.21 Fold
- Luciferase activity (Fold over vehicle ± SE) ERβ/Estradiol (1 × 10^−9M) ([3]; calycosin 10 ×10^−6 g/mL): 65.1 ± 2.71 Fold
- Luciferase activity (Fold over vehicle ± SE) ERβ/Estradiol (1 × 10^−9M) ([3]; calycosin 30 ×10^−6 g/mL): 70.7 ± 3.61 Fold

SMILES: O=c1c(-c2ccc(O)cc2)coc2cc(O)ccc12 [daidzein]
- ERα activity comparable to % maximal activity of Estradiol ([1]; 5×10^−6 g/ml): ~100%
- maximal fold increase in ERα activity ([1]; 5×10^−6 g/ml): 20 fold
- Luciferase activity (Fold over vehicle ± SE) PR/Progesterone (10 × 10^−9M) ([2]; daidzein 5 ×10^−6 g/mL): 569 ± 84.0 Fold
- Luciferase activity (Fold over vehicle ± SE) PR/Progesterone (10 × 10^−9M) ([2]; daidzein 10 ×10^−6 g/mL): 607 ± 90.6 Fold
- Luciferase activity (Fold over vehicle ± SE) PR/Progesterone (10 × 10^−9M) ([2]; daidzein 20 ×10^−6 g/mL): 326 ± 65.8 Fold
- ERβ activity comparable to % maximal activity of Estradiol [3]: ~200%
- maximal fold increase in ERβ activity [3]: 29 fold
